From ChEMBL document CHEMBL3885861, “Open TG-GATES”

Organism: Rattus norvegicus
Assay: Open TG-GATES - Regimen: Single
Type: toxicity, organism-based, Sprague-Dawley
Parameters: regimen Single, gender Male, age 6 weeks
Conditions: in vivo, po, route gavage; for gamma-GTP / ALP / ALT / AST / CRE / DBIL / IP / K / LDH / Na / RALB / TBIL / TC / TG / TP: tissue Plasma; for Bas / Eos / Fbg / Hb / Lym / MCH / MCHC / MCV / Mono / Neu / PT / RBC / Ret / APTT / WBC: tissue Blood; for KIDNEY_L / KIDNEY_R / KIDNEY_TOTAL: tissue Kidney

## Cc1cnc(NC(=O)C2=C(O)c3ccccc3S(=O)(=O)N2C)s1 [MELOXICAM]
0 mg/kg, 24 h, dose level Control
  gamma-GTP: 1 IU/L
10 mg/kg, 3 h, dose level Low
  TERMINAL_BW: 224.9 g
  Bas: 0.6%
  Eos: 1%
  Fbg: 239 mg/dL
  Hb: 13.3 g/dL
  Lym: 78%
  MCH: 20.8 pg
  MCHC: 33.6%
  MCV: 62 fL
  Mono: 2%
  Neu: 18.2%
  PT: 12.2 s
  RBC: 638.8 x10_4/ul
  Ret: 7.2%
  KIDNEY_L: 1 g
  KIDNEY_R: 1 g
  KIDNEY_TOTAL: 2 g
  ALP: 867.6 IU/L
  ALT: 31.8 IU/L
  AST: 65.8 IU/L
  CRE: 0.3 mg/dL
  DBIL: 0.06 mg/dL
  IP: 9 mg/dL
  K: 4 meq/L
  LDH: 138 IU/L
  Na: 141 meq/L
  RALB: 3.3 g/dL
  TBIL: 0.1 mg/dL
  TC: 73.6 mg/dL
  TG: 62.6 mg/dL
  TP: 5.5 g/dL
  gamma-GTP: 0.8 IU/L
10 mg/kg, 6 h, dose level Low
  TERMINAL_BW: 223 g
  APTT: 17.8 s
  Bas: 0.6%
  Eos: 0.6%
  Fbg: 211.6 mg/dL
  Hb: 13.5 g/dL
  Lym: 77.4%
  MCH: 20.7 pg
  MCHC: 33.6%
  MCV: 61.8 fL
  Mono: 2.6%
  Neu: 18.6%
  RBC: 648.4 x10_4/ul
  Ret: 6.4%
  WBC: 95.9 x10_2/uL
  KIDNEY_L: 1 g
  KIDNEY_R: 1 g
  KIDNEY_TOTAL: 2.1 g
  ALP: 957 IU/L
  ALT: 37.2 IU/L
  AST: 70.6 IU/L
  CRE: 0.3 mg/dL
  DBIL: 0.062 mg/dL
  IP: 9 mg/dL
  K: 3.9 meq/L
  LDH: 163.8 IU/L
  Na: 141 meq/L
  RALB: 3.2 g/dL
  TBIL: 0.1 mg/dL
  TC: 66.8 mg/dL
  TG: 64.4 mg/dL
  TP: 5.2 g/dL
  gamma-GTP: 1 IU/L
10 mg/kg, 9 h, dose level Low
  TERMINAL_BW: 220.5 g
  APTT: 17.8 s
  Bas: 0%
  Eos: 0.8%
  Fbg: 216.6 mg/dL
  Hb: 13.4 g/dL
  Lym: 77.8%
  MCH: 21 pg
  MCHC: 34%
  MCV: 62.1 fL
  Mono: 2.8%
  Neu: 17.8%
  RBC: 637.8 x10_4/ul
  Ret: 6.7%
  KIDNEY_L: 1 g
  KIDNEY_R: 1 g
  KIDNEY_TOTAL: 2.1 g
  ALP: 759.6 IU/L
  ALT: 35 IU/L
  AST: 66 IU/L
  CRE: 0.4 mg/dL
  DBIL: 0.06 mg/dL
  IP: 9.5 mg/dL
  K: 3.9 meq/L
  LDH: 176.6 IU/L
  Na: 141.8 meq/L
  RALB: 3.4 g/dL
  TBIL: 0.1 mg/dL
  TC: 69.4 mg/dL
  TG: 41.6 mg/dL
  TP: 5.3 g/dL
  gamma-GTP: 1 IU/L
10 mg/kg, 24 h, dose level Low
  TERMINAL_BW: 237.5 g
  Bas: 0.2%
  Eos: 0.8%
  Fbg: 214 mg/dL
  Hb: 13.1 g/dL
  Lym: 74.4%
  MCH: 21.8 pg
  MCHC: 33.9%
  MCV: 64.2 fL
  Mono: 3.2%
  Neu: 20.8%
  PT: 11.8 s
  RBC: 601.4 x10_4/ul
  Ret: 7%
  WBC: 133.5 x10_2/uL
  KIDNEY_L: 1.1 g
  KIDNEY_R: 1.1 g
  KIDNEY_TOTAL: 2.2 g
  ALP: 959.4 IU/L
  ALT: 36.8 IU/L
  AST: 70 IU/L
  CRE: 0.4 mg/dL
  DBIL: 0.082 mg/dL
  IP: 7.9 mg/dL
  K: 4.2 meq/L
  LDH: 177.8 IU/L
  Na: 141 meq/L
  RALB: 3.2 g/dL
  TBIL: 0.1 mg/dL
  TC: 72 mg/dL
  TG: 84.4 mg/dL
